In ChEMBL document CHEMBL4507297, “Data for DCP probe PF-04457845” (2021):

Key:
[1] = target: Ephrin type-A receptor 8 (Homo sapiens) (UniProt P29322); settings: Compound concentration 1000.0 nM
[2] = target: Sodium-dependent noradrenaline transporter (Homo sapiens) (UniProt P23975); settings: Compound concentration 10.0 uM
[3] = target: Serine/threonine-protein kinase 32C (Homo sapiens) (UniProt Q86UX6); settings: Compound concentration 1000.0 nM
[4] = target: Tyrosine-protein kinase ABL1 (Homo sapiens) (UniProt P00519); settings: Compound concentration 1000.0 nM
[5] = target: Cyclin-dependent kinase-like 5 (Homo sapiens) (UniProt O76039); settings: Compound concentration 1000.0 nM
[6] = target: Casein kinase I isoform gamma-2 (Homo sapiens) (UniProt P78368); settings: Compound concentration 1000.0 nM
[7] = target: Homeodomain-interacting protein kinase 2 (Homo sapiens) (UniProt Q9H2X6); settings: Compound concentration 1000.0 nM
[8] = target: BDNF/NT-3 growth factors receptor (Homo sapiens) (UniProt Q16620); settings: Compound concentration 1000.0 nM
[9] = target: Tyrosine-protein kinase SYK (Homo sapiens) (UniProt P43405); settings: Compound concentration 1000.0 nM
[10] = target: Alpha-1B adrenergic receptor (Homo sapiens) (UniProt P35368); settings: Compound concentration 10.0 uM
[11] = target: Myosin light chain kinase 2, skeletal/cardiac muscle (Homo sapiens) (UniProt Q9H1R3); settings: Compound concentration 1000.0 nM
[12] = target: Myosin light chain kinase (Homo sapiens) (UniProt Q32MK0); settings: Compound concentration 1000.0 nM
[13] = target: Tyrosine-protein kinase CSK (Homo sapiens) (UniProt P41240); settings: Compound concentration 1000.0 nM
[14] = target: Ribosomal protein S6 kinase alpha-2 (Homo sapiens) (UniProt Q15349); settings: Compound concentration 1000.0 nM
[15] = target: Activin receptor type-1-like (Homo sapiens) (UniProt P37023); settings: Compound concentration 1000.0 nM
[16] = target: Tyrosine-protein kinase receptor TYRO3 (Homo sapiens) (UniProt Q06418); settings: Compound concentration 1000.0 nM
[17] = target: Tyrosine-protein kinase Yes (Homo sapiens) (UniProt P07947); settings: Compound concentration 1000.0 nM
[18] = target: 5-hydroxytryptamine receptor 5A (Homo sapiens) (UniProt P47898); settings: Compound concentration 10.0 uM
[19] = target: Activin receptor type-1 (Homo sapiens) (UniProt Q04771); settings: Compound concentration 1000.0 nM
[20] = target: Aurora kinase B (Homo sapiens) (UniProt Q96GD4); settings: Compound concentration 1000.0 nM
[21] = target: Activin receptor type-1B (Homo sapiens) (UniProt P36896); settings: Compound concentration 1000.0 nM
[22] = target: Serine/threonine-protein kinase 32A (Homo sapiens) (UniProt Q8WU08); settings: Compound concentration 1000.0 nM
[23] = target: Ribosomal protein S6 kinase alpha-6 (Homo sapiens) (UniProt Q9UK32); settings: Compound concentration 1000.0 nM
[24] = target: Ephrin type-A receptor 1 (Homo sapiens) (UniProt P21709); settings: Compound concentration 1000.0 nM
[25] = target: Alpha-2C adrenergic receptor (Homo sapiens) (UniProt P18825); settings: Compound concentration 10.0 uM
[26] = target: Receptor-type tyrosine-protein kinase FLT3 (Homo sapiens) (UniProt P36888); settings: Compound concentration 1000.0 nM
[27] = target: Dual specificity mitogen-activated protein kinase kinase 6 (Homo sapiens) (UniProt P52564); settings: Compound concentration 1000.0 nM
[28] = target: Serine/threonine-protein kinase BRSK2 (Homo sapiens) (UniProt Q8IWQ3); settings: Compound concentration 1000.0 nM
[29] = target: Cyclin-dependent kinase-like 1 (Homo sapiens) (UniProt Q00532); settings: Compound concentration 1000.0 nM
[30] = target: Vascular endothelial growth factor receptor 1 (Homo sapiens) (UniProt P17948); settings: Compound concentration 1000.0 nM
[31] = target: STE20-like serine/threonine-protein kinase (Homo sapiens) (UniProt Q9H2G2); settings: Compound concentration 1000.0 nM
[32] = target: Beta-2 adrenergic receptor (Homo sapiens) (UniProt P07550); settings: Compound concentration 10.0 uM
[33] = target: Serine/threonine-protein kinase WNK3 (Homo sapiens) (UniProt Q9BYP7); settings: Compound concentration 1000.0 nM
[34] = target: Serine/threonine-protein kinase Nek3 (Homo sapiens) (UniProt P51956); settings: Compound concentration 1000.0 nM
[35] = target: Ribosomal protein S6 kinase alpha-1 (Homo sapiens) (UniProt Q15418); settings: Compound concentration 1000.0 nM
[36] = target: Mitogen-activated protein kinase kinase kinase 10 (Homo sapiens) (UniProt Q02779); settings: Compound concentration 1000.0 nM
[37] = test system: Epidermal growth factor receptor (Homo sapiens), P00533 [T790M]; settings: Compound concentration 1000.0 nM
[38] = test system: Proto-oncogene tyrosine-protein kinase receptor Ret (Homo sapiens), P07949 [V804M]; settings: Compound concentration 1000.0 nM
[39] = target: Mast/stem cell growth factor receptor Kit (Homo sapiens) (UniProt P10721); settings: Compound concentration 1000.0 nM
[40] = target: Leucine-rich repeat serine/threonine-protein kinase 2 (Homo sapiens) (UniProt Q5S007); settings: Compound concentration 1000.0 nM
[41] = target: Serine/threonine-protein kinase ULK3 (Homo sapiens) (UniProt Q6PHR2); settings: Compound concentration 1000.0 nM
[42] = target: Serine/threonine-protein kinase LATS1 (Homo sapiens) (UniProt O95835); settings: Compound concentration 1000.0 nM
[43] = target: Serine/threonine-protein kinase NIM1 (Homo sapiens) (UniProt Q8IY84); settings: Compound concentration 1000.0 nM
[44] = target: Myosin-IIIb (Homo sapiens) (UniProt Q8WXR4); settings: Compound concentration 1000.0 nM
[45] = target: Ephrin type-A receptor 7 (Homo sapiens) (UniProt Q15375); settings: Compound concentration 1000.0 nM
[46] = test system: Phosphatidylinositol 4,5-bisphosphate 3-kinase catalytic subunit alpha isoform (Homo sapiens), P42336 [E545K]; settings: Compound concentration 1000.0 nM

Sequence of Ephrin type-A receptor 8 (Homo sapiens) (P29322 whole entry): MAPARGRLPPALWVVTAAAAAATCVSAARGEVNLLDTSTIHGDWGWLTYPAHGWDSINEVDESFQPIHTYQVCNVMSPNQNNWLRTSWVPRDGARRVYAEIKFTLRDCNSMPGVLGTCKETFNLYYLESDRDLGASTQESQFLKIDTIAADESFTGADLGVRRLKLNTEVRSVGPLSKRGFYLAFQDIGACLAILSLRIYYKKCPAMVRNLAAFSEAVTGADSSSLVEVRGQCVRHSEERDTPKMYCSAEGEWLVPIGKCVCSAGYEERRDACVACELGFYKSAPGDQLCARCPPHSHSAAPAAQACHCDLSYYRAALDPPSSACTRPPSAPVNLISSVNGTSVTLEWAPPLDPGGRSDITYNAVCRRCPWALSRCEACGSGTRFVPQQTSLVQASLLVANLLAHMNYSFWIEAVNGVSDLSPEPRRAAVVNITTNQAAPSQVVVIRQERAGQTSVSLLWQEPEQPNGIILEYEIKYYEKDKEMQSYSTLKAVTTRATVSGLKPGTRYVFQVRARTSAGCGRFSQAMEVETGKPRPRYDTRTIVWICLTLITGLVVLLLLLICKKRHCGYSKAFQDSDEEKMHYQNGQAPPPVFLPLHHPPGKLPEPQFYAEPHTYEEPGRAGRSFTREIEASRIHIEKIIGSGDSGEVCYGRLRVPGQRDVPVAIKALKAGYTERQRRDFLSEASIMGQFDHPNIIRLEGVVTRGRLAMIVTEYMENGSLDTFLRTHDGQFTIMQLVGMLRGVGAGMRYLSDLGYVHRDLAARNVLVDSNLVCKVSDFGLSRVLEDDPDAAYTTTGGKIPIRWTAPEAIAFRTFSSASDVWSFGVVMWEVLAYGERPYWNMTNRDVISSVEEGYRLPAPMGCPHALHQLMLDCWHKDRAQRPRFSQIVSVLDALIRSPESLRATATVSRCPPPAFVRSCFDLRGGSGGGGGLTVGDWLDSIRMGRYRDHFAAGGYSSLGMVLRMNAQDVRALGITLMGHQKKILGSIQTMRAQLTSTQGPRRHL
Sequence of Tyrosine-protein kinase Yes (Homo sapiens) (P07947 2-543 limits assumed): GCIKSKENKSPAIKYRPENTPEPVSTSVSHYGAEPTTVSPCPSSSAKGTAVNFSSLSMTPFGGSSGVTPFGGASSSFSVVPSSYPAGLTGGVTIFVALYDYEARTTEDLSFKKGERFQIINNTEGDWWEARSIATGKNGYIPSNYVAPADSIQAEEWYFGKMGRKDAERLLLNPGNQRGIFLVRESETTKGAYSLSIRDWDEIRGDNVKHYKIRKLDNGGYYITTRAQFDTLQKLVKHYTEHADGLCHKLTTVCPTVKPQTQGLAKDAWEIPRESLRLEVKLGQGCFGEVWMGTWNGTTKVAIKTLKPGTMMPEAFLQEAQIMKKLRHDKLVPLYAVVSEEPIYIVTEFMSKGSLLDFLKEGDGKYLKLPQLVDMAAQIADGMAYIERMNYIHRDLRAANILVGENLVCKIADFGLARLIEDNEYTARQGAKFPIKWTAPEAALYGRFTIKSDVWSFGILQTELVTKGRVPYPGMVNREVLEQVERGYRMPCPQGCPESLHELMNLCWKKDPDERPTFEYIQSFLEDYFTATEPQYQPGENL
Sequence of Activin receptor type-1B (Homo sapiens) (P36896 whole entry): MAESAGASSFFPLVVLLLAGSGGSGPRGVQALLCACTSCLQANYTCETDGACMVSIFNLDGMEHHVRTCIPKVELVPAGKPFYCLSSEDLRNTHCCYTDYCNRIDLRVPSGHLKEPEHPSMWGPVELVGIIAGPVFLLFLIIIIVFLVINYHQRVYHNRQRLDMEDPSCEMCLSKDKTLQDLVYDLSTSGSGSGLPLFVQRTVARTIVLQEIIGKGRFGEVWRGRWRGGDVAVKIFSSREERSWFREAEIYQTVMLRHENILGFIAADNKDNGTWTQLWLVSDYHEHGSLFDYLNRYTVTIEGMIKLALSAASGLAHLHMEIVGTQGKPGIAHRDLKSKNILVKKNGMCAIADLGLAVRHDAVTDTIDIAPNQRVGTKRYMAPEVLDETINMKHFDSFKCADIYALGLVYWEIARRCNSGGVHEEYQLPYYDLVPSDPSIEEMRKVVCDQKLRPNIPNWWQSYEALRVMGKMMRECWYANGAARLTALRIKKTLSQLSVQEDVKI
Sequence of Homeodomain-interacting protein kinase 2 (Homo sapiens) (Q9H2X6 whole entry, looked up): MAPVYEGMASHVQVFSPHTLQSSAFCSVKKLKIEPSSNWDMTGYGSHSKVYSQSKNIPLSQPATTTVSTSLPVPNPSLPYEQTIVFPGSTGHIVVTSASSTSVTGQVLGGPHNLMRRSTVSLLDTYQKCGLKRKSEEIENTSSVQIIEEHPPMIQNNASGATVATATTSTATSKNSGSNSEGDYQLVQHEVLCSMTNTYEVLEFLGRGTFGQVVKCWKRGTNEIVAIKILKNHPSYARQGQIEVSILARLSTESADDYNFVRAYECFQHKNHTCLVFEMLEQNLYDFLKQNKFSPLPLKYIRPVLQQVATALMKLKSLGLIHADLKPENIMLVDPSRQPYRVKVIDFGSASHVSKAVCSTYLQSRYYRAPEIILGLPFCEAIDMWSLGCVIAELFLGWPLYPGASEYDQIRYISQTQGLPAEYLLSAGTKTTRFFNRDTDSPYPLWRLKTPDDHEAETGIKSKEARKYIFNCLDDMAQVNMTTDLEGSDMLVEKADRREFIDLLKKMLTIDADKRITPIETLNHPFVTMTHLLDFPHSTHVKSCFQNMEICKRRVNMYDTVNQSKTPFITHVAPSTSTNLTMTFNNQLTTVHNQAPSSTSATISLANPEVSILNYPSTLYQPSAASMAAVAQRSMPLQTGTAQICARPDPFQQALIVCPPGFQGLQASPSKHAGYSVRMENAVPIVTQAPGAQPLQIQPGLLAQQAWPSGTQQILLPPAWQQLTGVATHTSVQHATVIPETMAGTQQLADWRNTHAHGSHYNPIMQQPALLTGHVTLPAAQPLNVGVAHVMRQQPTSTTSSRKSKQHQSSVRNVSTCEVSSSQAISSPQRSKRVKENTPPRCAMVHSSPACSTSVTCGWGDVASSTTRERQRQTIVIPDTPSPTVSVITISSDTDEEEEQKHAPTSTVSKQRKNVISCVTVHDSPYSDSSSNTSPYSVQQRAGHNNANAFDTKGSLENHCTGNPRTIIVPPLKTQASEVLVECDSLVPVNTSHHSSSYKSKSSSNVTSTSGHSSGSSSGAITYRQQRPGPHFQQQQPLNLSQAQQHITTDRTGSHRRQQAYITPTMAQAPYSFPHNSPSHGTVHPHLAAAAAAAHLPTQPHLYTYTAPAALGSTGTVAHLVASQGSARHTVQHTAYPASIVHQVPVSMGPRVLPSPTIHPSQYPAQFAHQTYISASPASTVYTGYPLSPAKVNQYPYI
Sequence of Mast/stem cell growth factor receptor Kit (Homo sapiens) (P10721 whole entry): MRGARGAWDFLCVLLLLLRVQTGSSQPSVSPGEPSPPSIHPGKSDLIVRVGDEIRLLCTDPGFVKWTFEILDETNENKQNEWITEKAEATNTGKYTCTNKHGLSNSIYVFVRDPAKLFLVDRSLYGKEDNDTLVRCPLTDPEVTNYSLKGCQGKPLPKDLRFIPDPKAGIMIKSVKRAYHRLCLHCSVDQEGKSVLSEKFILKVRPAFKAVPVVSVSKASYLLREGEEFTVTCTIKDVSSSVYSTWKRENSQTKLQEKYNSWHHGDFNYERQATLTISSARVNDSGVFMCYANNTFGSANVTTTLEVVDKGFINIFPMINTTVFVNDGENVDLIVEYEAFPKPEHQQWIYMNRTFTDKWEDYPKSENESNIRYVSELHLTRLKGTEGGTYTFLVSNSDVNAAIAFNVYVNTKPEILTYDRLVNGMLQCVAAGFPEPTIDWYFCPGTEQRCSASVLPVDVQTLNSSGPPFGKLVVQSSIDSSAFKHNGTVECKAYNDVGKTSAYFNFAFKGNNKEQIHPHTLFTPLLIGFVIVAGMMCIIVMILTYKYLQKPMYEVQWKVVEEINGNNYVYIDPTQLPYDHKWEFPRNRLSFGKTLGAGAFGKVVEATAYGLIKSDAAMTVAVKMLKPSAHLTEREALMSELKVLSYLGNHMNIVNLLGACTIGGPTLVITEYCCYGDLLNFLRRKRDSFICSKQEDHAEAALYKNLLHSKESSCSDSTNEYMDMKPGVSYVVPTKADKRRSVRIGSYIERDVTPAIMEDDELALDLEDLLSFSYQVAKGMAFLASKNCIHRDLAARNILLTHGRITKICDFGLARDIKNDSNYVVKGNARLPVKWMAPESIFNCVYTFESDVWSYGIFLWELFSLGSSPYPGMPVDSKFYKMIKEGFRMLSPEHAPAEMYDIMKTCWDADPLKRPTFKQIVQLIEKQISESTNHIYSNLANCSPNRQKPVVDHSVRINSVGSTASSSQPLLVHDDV
Sequence of Serine/threonine-protein kinase 32C (Homo sapiens) (Q86UX6 whole entry): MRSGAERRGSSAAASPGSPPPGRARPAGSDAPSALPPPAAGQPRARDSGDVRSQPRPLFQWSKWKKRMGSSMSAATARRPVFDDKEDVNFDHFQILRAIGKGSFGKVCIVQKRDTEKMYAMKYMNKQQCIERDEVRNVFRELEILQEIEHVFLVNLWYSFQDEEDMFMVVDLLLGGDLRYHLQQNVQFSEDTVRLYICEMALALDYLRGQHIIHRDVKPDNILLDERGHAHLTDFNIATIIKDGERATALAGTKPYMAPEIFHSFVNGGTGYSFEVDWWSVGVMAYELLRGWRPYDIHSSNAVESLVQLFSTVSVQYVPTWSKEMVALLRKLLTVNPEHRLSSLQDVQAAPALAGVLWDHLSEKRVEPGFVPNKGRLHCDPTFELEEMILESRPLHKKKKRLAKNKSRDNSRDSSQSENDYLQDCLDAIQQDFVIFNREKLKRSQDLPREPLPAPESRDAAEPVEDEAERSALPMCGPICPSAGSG
Sequence of Cyclin-dependent kinase-like 1 (Homo sapiens) (Q00532 whole entry): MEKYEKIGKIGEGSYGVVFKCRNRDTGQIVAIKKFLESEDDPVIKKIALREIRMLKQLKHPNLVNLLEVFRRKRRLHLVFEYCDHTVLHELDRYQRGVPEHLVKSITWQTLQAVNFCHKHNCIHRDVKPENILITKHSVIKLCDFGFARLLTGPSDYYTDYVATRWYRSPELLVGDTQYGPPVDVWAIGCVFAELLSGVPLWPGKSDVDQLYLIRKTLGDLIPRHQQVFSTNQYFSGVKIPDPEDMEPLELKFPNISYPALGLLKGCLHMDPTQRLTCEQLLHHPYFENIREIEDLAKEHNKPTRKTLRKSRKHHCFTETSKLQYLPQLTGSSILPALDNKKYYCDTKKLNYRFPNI

O=C(Nc1cccnn1)N1CC(C/C=C/c2cncc(Oc3ccc(C(F)(F)F)cn3)n2)C1
inactive: residual activity [1] 100% | inhibition [2] -1% | residual activity [3] 100% | residual activity [4] 87% | residual activity [5] 73% | residual activity [6] 100% | residual activity [7] 89% | residual activity [8] 77% | residual activity [9] 100% | inhibition [10] 0.27% | residual activity [11] 87% | residual activity [12] 85% | residual activity [13] 100% | residual activity [14] 100% | residual activity [15] 100% | residual activity [16] 100% | residual activity [17] 100% | inhibition [18] 7.85% | residual activity [19] 92% | residual activity [20] 59% | residual activity [21] 79% | residual activity [22] 100% | residual activity [23] 80% | residual activity [24] 100% | inhibition [25] 0.34% | residual activity [26] 100% | residual activity [27] 100% | residual activity [28] 100% | residual activity [29] 100% | residual activity [30] 100% | residual activity [31] 100% | inhibition [32] 16.8% | residual activity [33] 84% | residual activity [34] 100% | residual activity [35] 92% | residual activity [36] 100% | residual activity [37] 100% | residual activity [38] 100% | residual activity [39] 80% | residual activity [40] 90% | residual activity [41] 82% | residual activity [42] 91% | residual activity [43] 76% | residual activity [44] 100% | residual activity [45] 100% | residual activity [46] 81%

O=C(Nc1cccnn1)N1CCC(=Cc2cccc(Oc3ccc(C(F)(F)F)cn3)c2)CC1
inactive: residual activity [1] 100% | inhibition [2] 7.86% | residual activity [3] 100% | residual activity [4] 68% | residual activity [5] 100% | residual activity [6] 92% | residual activity [7] 100% | residual activity [8] 100% | residual activity [9] 100% | inhibition [10] 0.4% | residual activity [11] 88% | residual activity [12] 100% | residual activity [13] 100% | residual activity [14] 100% | residual activity [15] 77% | residual activity [16] 100% | residual activity [17] 100% | inhibition [18] 28.4% | residual activity [19] 92% | residual activity [20] 100% | residual activity [21] 88% | residual activity [22] 100% | residual activity [23] 100% | residual activity [24] 100% | residual activity [26] 100% | residual activity [27] 100% | residual activity [28] 90% | residual activity [29] 86% | residual activity [30] 100% | residual activity [31] 74% | inhibition [32] 0.51% | residual activity [33] 100% | residual activity [34] 100% | residual activity [35] 100% | residual activity [36] 100% | residual activity [37] 100% | residual activity [38] 100% | residual activity [39] 81% | residual activity [40] 99% | residual activity [41] 100% | residual activity [42] 100% | residual activity [43] 100% | residual activity [44] 100% | residual activity [45] 95% | residual activity [46] 100%
active: inhibition [25] 79.3%
